{"source": "paper PMC12028158", "about": "“Synthesis and In Vitro Evaluation of the Anticancer Effect of Novel Phosphonium Vindoline Derivatives” (International Journal of Molecular Sciences, 2025)", "assay_type_in_all_cases": "cell-based", "key": {"SNB-19 [1]": {"test_system": "SNB-19", "assay": "NCI60 five-dose screen", "conditions": "Homo sapiens, read-out: GI50"}, "SF-539 [2]": {"test_system": "SF-539", "assay": "NCI60 five-dose screen", "conditions": "Homo sapiens; SF-539, CNS Cancer, five-dose; read-out: GI50"}, "786-0": {"test_system": "786-0", "assay": "NCI60 five-dose screen", "conditions": "Homo sapiens; 786-0, Renal Cancer, five-dose; read-out: GI50"}, "U251": {"test_system": "U251", "assay": "NCI60 one-dose screen", "conditions": "Homo sapiens, U-251; U251, 10 μM, one-dose; read-out: Growth percent"}, "NCI-H460 [3]": {"test_system": "NCI-H460", "assay": "NCI60 one-dose screen", "conditions": "Homo sapiens; NCI-H460, 10 μM, one-dose; read-out: Growth percent"}, "SF-268": {"test_system": "SF-268", "assay": "NCI60 one-dose screen", "conditions": "Homo sapiens; SF-268, 10 μM, one-dose; read-out: Growth percent"}, "HOP-62": {"test_system": "HOP-62", "assay": "NCI60 one-dose screen", "conditions": "Homo sapiens; HOP-62, 10 μM, one-dose; read-out: Growth percent"}, "Melanoma panel": {"test_system": "Melanoma panel", "assay": "NCI60 five-dose screen, panel mean", "conditions": "Homo sapiens; mean over Melanoma panel; read-out: Mean GI50"}, "SW-620": {"test_system": "SW-620", "assay": "NCI60 one-dose screen", "conditions": "Homo sapiens; SW-620, 10 μM, one-dose; read-out: Growth percent"}, "COLO 205": {"test_system": "COLO 205", "assay": "NCI60 one-dose screen", "conditions": "Homo sapiens; COLO 205, 10 μM, one-dose; read-out: Growth percent"}, "SK-MEL-5": {"test_system": "SK-MEL-5", "assay": "NCI60 one-dose screen", "conditions": "Homo sapiens; SK-MEL-5, 10 μM, one-dose; read-out: Growth percent"}, "LOX IMVI": {"test_system": "LOX IMVI", "assay": "NCI60 one-dose screen", "conditions": "Homo sapiens, 10 μM, one-dose, read-out: Growth percent"}, "Prostate Cancer panel": {"test_system": "Prostate Cancer panel", "assay": "NCI60 five-dose screen, panel mean", "conditions": "Homo sapiens; mean over Prostate Cancer panel; read-out: Mean GI50"}, "A498": {"test_system": "A498", "assay": "NCI60 five-dose screen", "conditions": "Homo sapiens; A498, Renal Cancer, five-dose; read-out: GI50"}, "RPMI-8226 [4]": {"test_system": "RPMI-8226", "assay": "NCI60 five-dose screen", "conditions": "Homo sapiens; RPMI-8226, Leukemia, five-dose; read-out: GI50"}, "HL-60(TB)": {"test_system": "HL-60(TB)", "assay": "NCI60 five-dose screen", "conditions": "Homo sapiens, read-out: GI50"}, "MDA-MB-468": {"test_system": "MDA-MB-468", "assay": "NCI60 five-dose screen", "conditions": "Homo sapiens, read-out: GI50"}, "KM12 [5]": {"test_system": "KM12", "assay": "NCI60 five-dose screen", "conditions": "Homo sapiens, read-out: GI50"}, "SF-295": {"test_system": "SF-295", "assay": "NCI60 five-dose screen", "conditions": "Homo sapiens; SF-295, CNS Cancer, five-dose; read-out: GI50"}, "MDA-MB-435": {"test_system": "MDA-MB-435", "assay": "NCI60 one-dose screen", "conditions": "Homo sapiens; MDA-MB-435, 10 μM, one-dose; read-out: Growth percent"}, "KM12 [6]": {"test_system": "KM12", "assay": "NCI60 one-dose screen", "conditions": "Homo sapiens; KM12, 10 μM, one-dose; read-out: Growth percent"}, "MCF7 [7]": {"test_system": "MCF7", "assay": "NCI60 five-dose screen", "conditions": "Homo sapiens, read-out: GI50"}, "HT29": {"test_system": "HT29", "assay": "NCI60 one-dose screen", "conditions": "Homo sapiens, HT-29; HT29, 10 μM, one-dose; read-out: Growth percent"}, "SN12C": {"test_system": "SN12C", "assay": "NCI60 one-dose screen", "conditions": "Homo sapiens, 10 μM, one-dose, read-out: Growth percent"}, "SK-MEL-28": {"test_system": "SK-MEL-28", "assay": "NCI60 five-dose screen", "conditions": "Homo sapiens; SK-MEL-28, Melanoma, five-dose; read-out: GI50"}, "MCF7 [8]": {"test_system": "MCF7", "assay": "NCI60 one-dose screen", "conditions": "Homo sapiens; MCF7, 10 μM, one-dose; read-out: Growth percent"}, "DU-145": {"test_system": "DU-145", "assay": "NCI60 five-dose screen", "conditions": "Homo sapiens; DU-145, Prostate Cancer, five-dose; read-out: GI50"}, "NCI-H23": {"test_system": "NCI-H23", "assay": "NCI60 five-dose screen", "conditions": "Homo sapiens; NCI-H23, Non-small Cell Lung Cancer, five-dose; read-out: GI50"}, "OVCAR-3": {"test_system": "OVCAR-3", "assay": "NCI60 five-dose screen", "conditions": "Homo sapiens; OVCAR-3, Ovarian Cancer, five-dose; read-out: GI50"}, "PC-3": {"test_system": "PC-3", "assay": "NCI60 five-dose screen", "conditions": "Homo sapiens; PC-3, Prostate Cancer, five-dose; read-out: GI50"}, "NCI-H460 [9]": {"test_system": "NCI-H460", "assay": "NCI60 five-dose screen", "conditions": "Homo sapiens; NCI-H460, Non-small Cell Lung Cancer, five-dose; read-out: GI50"}, "NCI-H226": {"test_system": "NCI-H226", "assay": "NCI60 one-dose screen", "conditions": "Homo sapiens; NCI-H226, 10 μM, one-dose; read-out: Growth percent"}, "HOP-92": {"test_system": "HOP-92", "assay": "NCI60 five-dose screen", "conditions": "Homo sapiens; HOP-92, Non-small Cell Lung Cancer, five-dose; read-out: GI50"}, "MALME-3M": {"test_system": "MALME-3M", "assay": "NCI60 one-dose screen", "conditions": "Homo sapiens; MALME-3M, 10 μM, one-dose; read-out: Growth percent"}, "RPMI-8226 [10]": {"test_system": "RPMI-8226", "assay": "NCI60 one-dose screen", "conditions": "Homo sapiens; RPMI-8226, 10 μM, one-dose; read-out: Growth percent"}, "SK-MEL-2": {"test_system": "SK-MEL-2", "assay": "NCI60 one-dose screen", "conditions": "Homo sapiens; SK-MEL-2, 10 μM, one-dose; read-out: Growth percent"}, "TK-10": {"test_system": "TK-10", "assay": "NCI60 five-dose screen", "conditions": "Homo sapiens; TK-10, Renal Cancer, five-dose; read-out: GI50"}, "SF-539 [11]": {"test_system": "SF-539", "assay": "NCI60 one-dose screen", "conditions": "Homo sapiens; SF-539, 10 μM, one-dose; read-out: Growth percent"}, "[12]": {"test_system": "Non-small Cell Lung Cancer panel", "assay": "NCI60 five-dose screen, panel mean", "conditions": "Homo sapiens; mean over Non-small Cell Lung Cancer panel; read-out: Mean GI50"}, "SNB-19 [13]": {"test_system": "SNB-19", "assay": "NCI60 one-dose screen", "conditions": "Homo sapiens; SNB-19, 10 μM, one-dose; read-out: Growth percent"}, "OVCAR-8": {"test_system": "OVCAR-8", "assay": "NCI60 five-dose screen", "conditions": "Homo sapiens; OVCAR-8, Ovarian Cancer, five-dose; read-out: GI50"}, "UACC-257": {"test_system": "UACC-257", "assay": "NCI60 five-dose screen", "conditions": "Homo sapiens, read-out: GI50"}}, "note": "Like-named read-outs stand apart in the source and are kept apart here.", "data": [{"compound": "CC[C@]12C=CCN3CC[C@@]4(c5ccc(OC)cc5N(C)[C@H]4[C@@](O)(C(=O)OC)[C@@H]1OC(=O)CCC[P+](c1cc(C)c(OC)c(C)c1)(c1cc(C)c(OC)c(C)c1)c1cc(C)c(OC)c(C)c1)[C@@H]32", "note": "[9e]", "values": [{"measurement": "GI50", "setting": "SNB-19 [1]; SNB-19, CNS cancer SNB-19, text", "value": "< 100", "unit": "nM"}, {"measurement": "GI50", "setting": "SNB-19 [1]; SNB-19, SNB-19, CNS Cancer, five-dose", "value": 59, "unit": "nM"}, {"measurement": "GI50", "setting": "SF-539 [2]", "value": 307, "unit": "nM"}, {"measurement": "GI50", "setting": "786-0", "value": 239, "unit": "nM"}, {"measurement": "activity at 10 µM", "setting": "U251", "value": -96.5, "unit": "%"}, {"measurement": "activity at 10 µM", "setting": "NCI-H460 [3]", "value": -89.5, "unit": "%"}, {"measurement": "activity at 10 µM", "setting": "SF-268", "value": -97.6, "unit": "%"}, {"measurement": "activity at 10 µM", "setting": "HOP-62", "value": -97.9, "unit": "%"}, {"measurement": "GI50", "setting": "Melanoma panel", "value": 180, "unit": "nM"}, {"measurement": "activity at 10 µM", "setting": "SW-620", "value": -95.8, "unit": "%"}, {"measurement": "activity at 10 µM", "setting": "COLO 205", "value": -96.6, "unit": "%"}, {"measurement": "activity at 10 µM", "setting": "SK-MEL-5", "value": -97.5, "unit": "%"}, {"measurement": "activity at 10 µM", "setting": "LOX IMVI", "value": -96.8, "unit": "%"}, {"measurement": "GI50", "setting": "Prostate Cancer panel", "value": 250, "unit": "nM"}, {"measurement": "GI50", "setting": "A498", "value": 314, "unit": "nM"}, {"measurement": "GI50", "setting": "RPMI-8226 [4]", "value": 20, "unit": "nM"}, {"measurement": "GI50", "setting": "HL-60(TB); HL-60, HL-60(TB), Leukemia, five-dose", "value": 39, "unit": "nM"}, {"measurement": "GI50", "setting": "HL-60(TB); HL-60, leukemia HL-60(TB)", "value": "< 100", "unit": "nM"}, {"measurement": "GI50", "setting": "MDA-MB-468; MDA-MB-468, MDA-MB-468, Breast Cancer, five-dose", "value": 27, "unit": "nM"}, {"measurement": "GI50", "setting": "MDA-MB-468; MDA-MB-468, breast cancer MDA-MB-468, text", "value": "< 100", "unit": "nM"}, {"measurement": "GI50", "setting": "KM12 [5]; KM12, KM12, Colon Cancer, five-dose", "value": 47, "unit": "nM"}, {"measurement": "GI50", "setting": "KM12 [5]; KM12, colon cancer KM12, text", "value": "< 100", "unit": "nM"}, {"measurement": "GI50", "setting": "SF-295", "value": 213, "unit": "nM"}, {"measurement": "activity at 10 µM", "setting": "MDA-MB-435", "value": -98.2, "unit": "%"}, {"measurement": "activity at 10 µM", "setting": "KM12 [6]", "value": -95, "unit": "%"}, {"measurement": "GI50", "setting": "MCF7 [7]; MCF7, MCF7, Breast Cancer, five-dose", "value": 44, "unit": "nM"}, {"measurement": "GI50", "setting": "MCF7 [7]; MCF7, breast cancer MCF7, text", "value": "< 100", "unit": "nM"}, {"measurement": "activity at 10 µM", "setting": "HT29", "value": -97.5, "unit": "%"}, {"measurement": "activity at 10 µM", "setting": "SN12C", "value": -96.7, "unit": "%"}, {"measurement": "GI50", "setting": "SK-MEL-28", "value": 272, "unit": "nM"}, {"measurement": "activity at 10 µM", "setting": "MCF7 [8]", "value": -94.5, "unit": "%"}, {"measurement": "GI50", "setting": "DU-145", "value": 300, "unit": "nM"}, {"measurement": "GI50", "setting": "NCI-H23", "value": 183, "unit": "nM"}, {"measurement": "GI50", "setting": "OVCAR-3", "value": 147, "unit": "nM"}, {"measurement": "GI50", "setting": "PC-3", "value": 192, "unit": "nM"}, {"measurement": "GI50", "setting": "NCI-H460 [9]", "value": 229, "unit": "nM"}, {"measurement": "activity at 10 µM", "setting": "NCI-H226", "value": -99.3, "unit": "%"}, {"measurement": "GI50", "setting": "HOP-92", "value": 201, "unit": "nM"}, {"measurement": "activity at 10 µM", "setting": "MALME-3M", "value": -98.4, "unit": "%"}, {"measurement": "activity at 10 µM", "setting": "RPMI-8226 [10]", "value": -98.3, "unit": "%"}, {"measurement": "activity at 10 µM", "setting": "SK-MEL-2", "value": -98.2, "unit": "%"}, {"measurement": "GI50", "setting": "TK-10", "value": 277, "unit": "nM"}, {"measurement": "activity at 10 µM", "setting": "SF-539 [11]", "value": -97.2, "unit": "%"}, {"measurement": "GI50", "setting": "[12]", "value": 230, "unit": "nM"}, {"measurement": "activity at 10 µM", "setting": "SNB-19 [13]", "value": -97.1, "unit": "%"}, {"measurement": "GI50", "setting": "OVCAR-8", "value": 300, "unit": "nM"}, {"measurement": "GI50", "setting": "UACC-257; UACC-257, UACC-257, Melanoma, five-dose", "value": 38, "unit": "nM"}, {"measurement": "GI50", "setting": "UACC-257; UACC-257, melanoma UACC-257, text", "value": "< 100", "unit": "nM"}]}]}
